Laboratory results published in patent publication US20260132129A1 (Genesis Therapeutics, Inc., priority 2022, published 2026).

Biological target: T1, PI3Kα H1047R (T47D cells) (Homo sapiens, UniProt P42336, H1047R)
T1 construct: endogenous in cells; host or cells: T47D cells
Assay: PI3Kα cellular assay: pAKT HTRF in T47D cells after EGF stimulation
Assay type: cell-based
Conditions: for IC50: T47D cells (PI3Kα H1047R), pAKT S473 HTRF
Procedure: SKBR3 or T47D cells are seeded in DMEM containing 10% FBS at 25k cells/well into 96-well cell culture format. Cells are incubated overnight at 37° C. in a 5% CO2 incubator and the following day cell media is aspirated, adherent cells are washed 1× with room temperature PBS prior to serum-free media application. Cells are returned to 37° C. 5% CO2 incubator and incubated a further 16 hrs. Compounds are added to serum starved adherent cells with a top dose of 10,000 nM and 3× multiple dose reductions for a minimum dose of 0.5 nM diluted in DMSO. Cell/compound incubation continues for 1 hr in a 37° C., 5% CO2 incubator prior to 10 minute PIK3CA stimulation with 20 ng/ml EGF. Cells treated with 0.1% DMSO and 20 ng/mL EGF are employed as negative control, cells treated with 10 uM Alpelisib and 20 ng/mL EGF are employed as a positive control. After 10 mins, plates are removed from incubator and cells are lysed with buffer and shaking 45 minutes. […] 384 well plate is left overnight at room temperature before reading HTRF on an Envision plate reader.
ND denotes value not determined with that assay for the specified compound; • for T47D (H1047R) selectivity over SKBR3 (WT): A denotes >20-fold; B denotes 20-fold≥value>5-fold; C denotes ≤5-fold. ND denotes value not determined with that assay for the specified compound; and • for T47D pAKT lipophilic efficiency (LiPE): A denotes >4; B denotes 4≥value>2; C denotes ≤2. ND denotes value not determined with that assay for the specified compound.

[1] = 1 hr compound, 20 ng/ml EGF 10 min
[2] = selectivity T47D (H1047R) over SKBR3 (WT), pAKT HTRF
[3] = selectivity of T47D (H1047R) over SKBR3 (WT) pAKT IC50

T1 sequence (P42336 whole entry H1047R): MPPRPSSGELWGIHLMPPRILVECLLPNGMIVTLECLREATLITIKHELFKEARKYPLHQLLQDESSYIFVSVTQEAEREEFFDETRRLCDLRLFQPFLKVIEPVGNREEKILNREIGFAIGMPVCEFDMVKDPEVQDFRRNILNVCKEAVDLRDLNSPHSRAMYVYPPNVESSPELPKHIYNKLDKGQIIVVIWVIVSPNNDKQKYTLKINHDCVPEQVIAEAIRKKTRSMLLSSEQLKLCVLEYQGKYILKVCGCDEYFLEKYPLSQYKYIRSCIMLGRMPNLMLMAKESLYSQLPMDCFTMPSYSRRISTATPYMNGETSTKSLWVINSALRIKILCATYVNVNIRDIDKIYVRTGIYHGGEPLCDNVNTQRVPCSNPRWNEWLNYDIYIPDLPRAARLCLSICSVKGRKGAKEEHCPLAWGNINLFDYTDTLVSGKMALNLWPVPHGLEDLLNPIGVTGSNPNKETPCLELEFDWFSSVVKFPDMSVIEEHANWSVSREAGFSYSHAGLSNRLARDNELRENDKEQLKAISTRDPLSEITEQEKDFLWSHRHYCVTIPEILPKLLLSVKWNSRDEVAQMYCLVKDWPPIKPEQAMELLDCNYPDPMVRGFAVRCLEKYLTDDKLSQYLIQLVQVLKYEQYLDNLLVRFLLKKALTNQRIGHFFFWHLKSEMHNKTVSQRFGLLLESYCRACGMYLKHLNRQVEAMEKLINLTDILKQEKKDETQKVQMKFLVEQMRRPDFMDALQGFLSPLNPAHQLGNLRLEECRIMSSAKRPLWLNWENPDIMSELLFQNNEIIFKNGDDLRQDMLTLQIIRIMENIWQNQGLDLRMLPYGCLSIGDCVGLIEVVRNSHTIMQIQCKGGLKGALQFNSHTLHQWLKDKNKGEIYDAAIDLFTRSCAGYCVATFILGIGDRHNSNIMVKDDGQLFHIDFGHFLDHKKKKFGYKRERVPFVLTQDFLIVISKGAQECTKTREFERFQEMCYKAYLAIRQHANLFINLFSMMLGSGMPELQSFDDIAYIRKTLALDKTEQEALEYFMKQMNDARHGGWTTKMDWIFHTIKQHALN
T1 sequence (P27986 whole entry partner): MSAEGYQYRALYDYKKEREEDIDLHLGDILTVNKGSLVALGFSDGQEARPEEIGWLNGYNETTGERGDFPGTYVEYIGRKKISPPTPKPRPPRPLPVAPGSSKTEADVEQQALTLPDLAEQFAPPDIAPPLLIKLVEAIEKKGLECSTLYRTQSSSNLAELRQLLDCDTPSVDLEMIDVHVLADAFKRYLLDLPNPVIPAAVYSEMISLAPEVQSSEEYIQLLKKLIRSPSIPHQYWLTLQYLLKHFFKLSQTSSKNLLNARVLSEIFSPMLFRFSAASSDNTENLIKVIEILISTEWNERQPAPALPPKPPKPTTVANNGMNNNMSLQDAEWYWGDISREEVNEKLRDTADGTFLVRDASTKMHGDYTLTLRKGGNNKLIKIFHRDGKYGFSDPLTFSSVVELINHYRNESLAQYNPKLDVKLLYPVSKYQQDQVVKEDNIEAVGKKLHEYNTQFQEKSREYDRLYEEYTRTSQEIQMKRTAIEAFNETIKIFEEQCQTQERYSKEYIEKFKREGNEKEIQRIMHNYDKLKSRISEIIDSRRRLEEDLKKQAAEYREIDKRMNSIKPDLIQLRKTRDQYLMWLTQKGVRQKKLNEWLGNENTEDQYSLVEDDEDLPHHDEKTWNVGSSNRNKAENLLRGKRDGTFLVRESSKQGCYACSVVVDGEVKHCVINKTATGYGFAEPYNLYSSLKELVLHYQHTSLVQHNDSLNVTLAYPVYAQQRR

SMILES	IC50 [1] [nM]	T47D pAKT S473 HTRF IC50 (H1047R): T47D (H1047R) selectivity over SKBR3 (WT) [2]	IC50 (EGF stimulation) [nM]	T47D pAKT S473 HTRF IC50 (H1047R): T47D (H1047R) selectivity over SKBR3 (WT) [3]
Cc1cc([C@H](C)Nc2ccccc2C(=O)O)c2nc(-c3ccc(C(=O)NO)cc3)cc(=O)n2c1 [Compound 502]	> 2000	C (C denotes ≤5-fold)	–	–
Cc1cc(C(C)Nc2ccccc2C(=O)O)c2nc(-c3cnc(C4CCN(C(=O)C5CC5)CC4)nc3)c(C)c(=O)n2c1 (stereo not shown) [Compound 1336]	–	C (C denotes ≤5-fold)	–	–
Cc1cc([C@H](C)Nc2ccccc2C(=O)O)c2nc(N3Cc4ccccc4[C@H]3C)cc(=O)n2c1 [Compound 654]	–	–	500 to 2000	B (B denotes 20-fold≥value>5-fold)
Cc1cc([C@H](C)Nc2ccccc2S(=O)(=O)O)c2nc(-c3cccc(C4CC4)c3)cc(=O)n2c1 [Compound 1327]	–	B (B denotes 20-fold≥value>5-fold)	–	–
Cc1cc([C@H](C)Nc2c(F)cccc2C(=O)O)c2nc(N3CCOCC3)cc(=O)n2c1 [Compound 334]	> 2000	C (C denotes ≤5-fold)	–	–
Cc1cc([C@@H](C)Nc2ccccc2C(=O)O)c2nc(-c3ccc(F)c(C#N)c3)c(C)c(=O)n2c1 (single isomer, unassigned) [Compound 947]	–	–	< 100	A (A denotes >20-fold)
Cc1cc([C@H](C)Nc2ccccc2C(=O)O)c2nc(OC3CCOCC3)c(C)c(=O)n2c1 (single isomer, unassigned) [Compound 1371]	–	A (A denotes >20-fold)	< 100	–
Cc1cc([C@@H](C)Nc2cccc3c2OCC(=O)N3)c2nc(N3CCOCC3)cc(=O)n2c1 [Compound 685]	–	–	> 2000	C (C denotes ≤5-fold)
Cc1cc([C@@H](C)Nc2ccccc2C(=O)O)c2nc(C)cc(=O)n2c1 [Compound 178]	–	C (C denotes ≤5-fold)	–	–
Cc1cc(C(C)Nc2ccccc2C(N)=O)c2nc(-c3ccncc3)cc(=O)n2c1 (single isomer, unassigned) [Compound 439]	> 2000	C (C denotes ≤5-fold)	–	–
Cc1cc([C@H](C)Nc2cccc(CO)c2C(=O)O)c2nc(-c3ccc4c(c3)c(C)nn4C)cc(=O)n2c1 [Compound 941]	–	–	> 2000	C (C denotes ≤5-fold)
Cc1cc([C@H](C)Nc2ccccc2C(=O)O)c2ncc(Cc3ccc(F)cc3)c(=O)n2c1 [Compound 914]	–	–	> 2000	C (C denotes ≤5-fold)
Cc1cc([C@H](C)Nc2ccccc2S(N)(=O)=O)c2nc(-c3cccc(C(F)F)c3)c(C)c(=O)n2c1 [Compound 1098]	–	C (C denotes ≤5-fold)	> 2000	–
Cc1cc(C(C)Nc2ccccc2S(N)(=O)=O)c2nc(-c3ccc(C4CNC4)nc3)c(C)c(=O)n2c1.O=C(O)C(F)(F)F (stereo not shown) [Compound 1305]	–	C (C denotes ≤5-fold)	> 2000	–
CCc1c(-c2ccc(F)cc2)nc2c([C@@H](C)Nc3ccccc3C(=O)O)cc(C)cn2c1=O [Compound 1115]	–	A (A denotes >20-fold)	< 100	–
Cc1cc(C(C)Nc2ccccc2C(=O)O)c2nc(N3CCC(NS(C)(=O)=O)CC3)cc(=O)n2c1 (stereo not shown) [Compound 433]	–	C (C denotes ≤5-fold)	–	–
Cc1cc([C@@H](C)Nc2ccccc2-c2ccnnc2)c2nc(C3Cc4ccccc4C3)cc(=O)n2c1 [Compound 718]	–	–	–	C (C denotes ≤5-fold)

SMILES	IC50 [1] [nM]	T47D pAKT S473 HTRF IC50 (H1047R): T47D (H1047R) selectivity over SKBR3 (WT) [2]	IC50 (EGF stimulation) [nM]	T47D pAKT S473 HTRF IC50 (H1047R): T47D (H1047R) selectivity over SKBR3 (WT) [3]
Cc1cc([C@H](C)Nc2ccccc2)c2nc(-c3cc(C)c4oc(=O)[nH]c4c3)cc(=O)n2c1 [Compound 252]	> 2000	C (C denotes ≤5-fold)	–	–
Cc1cc([C@H](C)Nc2ccccc2C(=O)O)c2nc(-c3ccc4c(c3)c(C(F)F)nn4C)cc(=O)n2c1 [Compound 808]	–	–	> 2000	C (C denotes ≤5-fold)
Cc1cc([C@H](C)Nc2ccccc2C(=O)O)c2nc(-c3ccc4[nH]cnc4c3)cc(=O)n2c1 [Compound 517]	> 2000	C (C denotes ≤5-fold)	–	–
Cc1cc([C@@H](C)Nc2cc[nH]c2-c2ccnnc2)c2nc(N3Cc4ccccc4C3)c(C)c(=O)n2c1 [Compound 1014]	–	–	–	C (C denotes ≤5-fold)
Cc1cc(C(C)Nc2ccccc2C(N)=O)c2nc(-c3ccnc(C4CC4)c3)c(C)c(=O)n2c1 (stereo not shown) [Compound 1063]	–	A (A denotes >20-fold)	100 to 500	–
Cc1cc(C(C)Nc2ccccc2C(=O)O)c2nc(N3CCO[C@H](C)C3)cc(=O)n2c1 (stereo partly shown) [Compound 372]	100 to 500	B (B denotes 20-fold≥value>5-fold)	–	–
Cc1cc([C@H](C)Nc2ccccc2C(=O)O)c2nc(-c3cc4c(N)nn(C)c4cc3C)c(C)c(=O)n2c1 [Compound 733]	–	–	–	C (C denotes ≤5-fold)
Cc1cc(C(C)Nc2ccccc2C(=O)O)c2nc(-c3ccc4[nH]nc(-c5ccccn5)c4c3)cc(=O)n2c1 (stereo not shown) [Compound 304]	> 2000	C (C denotes ≤5-fold)	–	–
Cc1cc([C@H](C)Nc2ccccc2C(=O)O)c2nc(-c3ccc4c(c3)c(N)nn4C)cc(=O)n2c1 [Compound 786]	–	–	> 2000	C (C denotes ≤5-fold)
Cc1cc([C@@H](C)Nc2ccccc2S(N)(=O)=O)c2nc(-c3cccc(C#N)c3)c(C)c(=O)n2c1 [Compound 1034]	–	–	< 100	A (A denotes >20-fold)
Cc1cc([C@H](C)Nc2ccccc2C(=O)O)c2nc(-c3ccc(F)c(C#N)c3)c(C)c(=O)n2c1 [Compound 948]	–	–	500 to 2000	B (B denotes 20-fold≥value>5-fold)
Cc1cc(C(C)Nc2ccccc2C(=O)O)c2nc(-c3ccc4c(c3)CC(F)(F)C4)c(C)c(=O)n2c1 (stereo not shown) [Compound 833]	–	–	100 to 500	A (A denotes >20-fold)
Cc1cc([C@H](C)Nc2ccccc2S(N)(=O)=O)c2nc([C@@H]3CCCN(CC(F)F)C3)c(C)c(=O)n2c1 [Compound 1311]	–	C (C denotes ≤5-fold)	> 2000	–
Cc1cc([C@H](C)Nc2ccccc2C#N)c2nc(N3CCOCC3)cc(=O)n2c1 [Compound 338]	> 2000	C (C denotes ≤5-fold)	–	–
Cc1cc([C@H](C)Nc2ccccc2)c2nc(-c3ccc(F)cc3)c(C)c(=O)n2c1 [Compound 1124]	–	C (C denotes ≤5-fold)	> 2000	–
Cc1cc([C@@H](C)Nc2ccccc2C2(O)COC2)c2nc(-c3cccc(F)c3)c(C)c(=O)n2c1 [Compound 1399]	–	A (A denotes >20-fold)	100 to 500	–
Cc1cc([C@H](C)Nc2cccc3c2CCC(=O)N3)c2nc(N3CCOCC3)cc(=O)n2c1 [Compound 604]	> 2000	C (C denotes ≤5-fold)	–	–
